Data as given in PubChem BioAssay (NCI).
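A five-concentration, 48-hour dose response in 96-well plates underlies each endpoint, interpolated linearly between surrounding concentrations. TGI marks complete inhibition of growth.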

Key:
Assay in all cases: inhibition of tumour cell growth, NCI panel, 48 h
KM12 colon = test system: KM12 colon
OVCAR-5 ovarian = test system: OVCAR-5 ovarian
DU-145 prostate = test system: DU-145 prostate
SK-MEL-5 melanoma = test system: SK-MEL-5 melanoma
SR leukemia = test system: SR leukemia
MOLT-4 leukemia = test system: MOLT-4 leukemia
HCT-116 colon = test system: HCT-116 colon
NCI-H460 lung = test system: NCI-H460 lung
U251 CNS = test system: U251 CNS
HT29 colon = test system: HT29 colon
OVCAR-8 ovarian = test system: OVCAR-8 ovarian
SN12C renal = test system: SN12C renal
786-0 renal = test system: 786-0 renal
COLO 205 colon = test system: COLO 205 colon
IGROV1 ovarian = test system: IGROV1 ovarian
UACC-257 melanoma = test system: UACC-257 melanoma
OVCAR-4 ovarian = test system: OVCAR-4 ovarian
RPMI-8226 leukemia = test system: RPMI-8226 leukemia
NCI/ADR-RES ovarian = test system: NCI/ADR-RES ovarian
SF-268 CNS = test system: SF-268 CNS
NCI-H23 lung = test system: NCI-H23 lung
A498 renal = test system: A498 renal
ACHN renal = test system: ACHN renal
MDA-N = test system: MDA-N
EKVX NSCLC = test system: EKVX NSCLC
RXF 393 renal = test system: RXF 393 renal
NCI-H226 lung = test system: NCI-H226 lung
T-47D breast = test system: T-47D breast
SK-MEL-2 melanoma = test system: SK-MEL-2 melanoma
UACC-62 melanoma = test system: UACC-62 melanoma
SNB-19 CNS = test system: SNB-19 CNS
BT-549 breast = test system: BT-549 breast
NCI-H522 lung = test system: NCI-H522 lung
SNB-75 CNS = test system: SNB-75 CNS
CAKI-1 renal = test system: CAKI-1 renal
HOP-62 NSCLC = test system: HOP-62 NSCLC
LOX IMVI melanoma = test system: LOX IMVI melanoma
TK-10 renal = test system: TK-10 renal
MCF7 breast = test system: MCF7 breast
MDA-MB-435 = test system: MDA-MB-435
K-562 leukemia = test system: K-562 leukemia
UO-31 renal = test system: UO-31 renal
SF-295 CNS = test system: SF-295 CNS
SW-620 colon = test system: SW-620 colon
MDA-MB-231 breast = test system: MDA-MB-231 breast
OVCAR-3 ovarian = test system: OVCAR-3 ovarian
SK-MEL-28 melanoma = test system: SK-MEL-28 melanoma
MALME-3M melanoma = test system: MALME-3M melanoma
HL-60(TB) leukemia = test system: HL-60(TB) leukemia
HCC-2998 colon = test system: HCC-2998 colon
PC-3 prostate = test system: PC-3 prostate
HCT-15 colon = test system: HCT-15 colon
HS 578T breast = test system: HS 578T breast
A549 NSCLC = test system: A549 NSCLC
SF-539 CNS = test system: SF-539 CNS
M14 melanoma = test system: M14 melanoma
CCRF-CEM leukemia = test system: CCRF-CEM leukemia

S=c1nc2sc3c(c2c(Nc2ccccc2)[nH]1)CCCC3
TGI (KM12 colon): > 100 µM
TGI (OVCAR-5 ovarian): > 100 µM
TGI (DU-145 prostate): > 100 µM
TGI (SK-MEL-5 melanoma): > 100 µM
TGI (SR leukemia): > 100 µM
TGI (MOLT-4 leukemia): > 100 µM
TGI (HCT-116 colon): > 100 µM
TGI (NCI-H460 lung): > 100 µM
TGI (U251 CNS): > 100 µM
TGI (HT29 colon): > 100 µM
TGI (OVCAR-8 ovarian): > 100 µM
TGI (SN12C renal): > 100 µM
TGI (786-0 renal): > 100 µM
TGI (COLO 205 colon): > 100 µM
TGI (IGROV1 ovarian): > 100 µM
TGI (UACC-257 melanoma): > 100 µM
TGI (OVCAR-4 ovarian): > 100 µM
TGI (RPMI-8226 leukemia): > 100 µM
TGI (NCI/ADR-RES ovarian): > 100 µM
TGI (SF-268 CNS): > 100 µM
TGI (NCI-H23 lung): > 100 µM
TGI (A498 renal): > 100 µM
TGI (ACHN renal): > 100 µM
TGI (MDA-N): > 100 µM
TGI (EKVX NSCLC): > 100 µM
TGI (RXF 393 renal): > 100 µM
TGI (NCI-H226 lung): > 100 µM
TGI (T-47D breast): > 100 µM
TGI (SK-MEL-2 melanoma): > 100 µM
TGI (UACC-62 melanoma): > 100 µM
TGI (SNB-19 CNS): > 100 µM
TGI (BT-549 breast): > 100 µM
TGI (NCI-H522 lung): > 100 µM
TGI (SNB-75 CNS): > 100 µM
TGI (CAKI-1 renal): > 100 µM
TGI (HOP-62 NSCLC): > 100 µM
TGI (LOX IMVI melanoma): > 100 µM
TGI (TK-10 renal): > 100 µM
TGI (MCF7 breast): > 100 µM
TGI (MDA-MB-435): > 100 µM
TGI (K-562 leukemia): > 100 µM
TGI (UO-31 renal): > 100 µM
TGI (SF-295 CNS): > 100 µM
TGI (SW-620 colon): > 100 µM
TGI (MDA-MB-231 breast): > 100 µM
TGI (OVCAR-3 ovarian): > 100 µM
TGI (SK-MEL-28 melanoma): > 100 µM
TGI (MALME-3M melanoma): > 100 µM
TGI (HL-60(TB) leukemia): > 100 µM
TGI (HCC-2998 colon): > 100 µM
TGI (PC-3 prostate): > 100 µM
TGI (HCT-15 colon): > 100 µM
TGI (HS 578T breast): > 100 µM

Nc1ccc(Cc2ccc(N=Cc3ccc(OCc4cccc(COc5ccc(C=Nc6ccc(Cc7ccc(N)cc7)cc6)cc5)n4)cc3)cc2)cc1
TGI (KM12 colon): > 100 µM
TGI (OVCAR-5 ovarian): > 100 µM
TGI (DU-145 prostate): > 100 µM
TGI (SK-MEL-5 melanoma): > 100 µM
TGI (SR leukemia): > 100 µM
TGI (MOLT-4 leukemia): > 100 µM
TGI (HCT-116 colon): > 100 µM
TGI (A549 NSCLC): > 100 µM
TGI (NCI-H460 lung): > 100 µM
TGI (U251 CNS): > 100 µM
TGI (HT29 colon): > 100 µM
TGI (SF-539 CNS): 26.6 µM
TGI (OVCAR-8 ovarian): > 100 µM
TGI (SN12C renal): > 100 µM
TGI (786-0 renal): > 100 µM
TGI (COLO 205 colon): > 100 µM
TGI (IGROV1 ovarian): > 100 µM
TGI (UACC-257 melanoma): > 100 µM
TGI (OVCAR-4 ovarian): > 100 µM
TGI (RPMI-8226 leukemia): > 100 µM
TGI (NCI/ADR-RES ovarian): > 100 µM
TGI (M14 melanoma): > 100 µM
TGI (SF-268 CNS): > 100 µM
TGI (NCI-H23 lung): > 100 µM
TGI (A498 renal): > 100 µM
TGI (ACHN renal): > 100 µM
TGI (MDA-N): > 100 µM
TGI (EKVX NSCLC): > 100 µM
TGI (RXF 393 renal): 68 µM
TGI (NCI-H226 lung): > 100 µM
TGI (T-47D breast): > 100 µM
TGI (SK-MEL-2 melanoma): > 100 µM
TGI (UACC-62 melanoma): > 100 µM
TGI (SNB-19 CNS): > 100 µM
TGI (BT-549 breast): > 100 µM
TGI (NCI-H522 lung): > 100 µM
TGI (SNB-75 CNS): 39.7 µM
TGI (CAKI-1 renal): > 100 µM
TGI (HOP-62 NSCLC): > 100 µM
TGI (LOX IMVI melanoma): > 100 µM
TGI (TK-10 renal): > 100 µM
TGI (MCF7 breast): > 100 µM
TGI (MDA-MB-435): > 100 µM
TGI (K-562 leukemia): > 100 µM
TGI (UO-31 renal): > 100 µM
TGI (CCRF-CEM leukemia): > 100 µM
TGI (SF-295 CNS): > 100 µM
TGI (SW-620 colon): > 100 µM
TGI (MDA-MB-231 breast): > 100 µM
TGI (OVCAR-3 ovarian): > 100 µM
TGI (SK-MEL-28 melanoma): > 100 µM
TGI (MALME-3M melanoma): > 100 µM
TGI (HL-60(TB) leukemia): > 100 µM
TGI (HCC-2998 colon): > 100 µM
TGI (PC-3 prostate): > 100 µM
TGI (HCT-15 colon): > 100 µM
TGI (HS 578T breast): > 100 µM
